Data from BindingDB's records for doi:10.1124/mol.64.6.1295 (Glaxosmithkline, 2003).
Counter-ions that a name gives are not always drawn.

Assays:
[1] = target: 5-hydroxytryptamine receptor 6 (Mus musculus, UniProt Q9R1C8)
[2] = target: 5-hydroxytryptamine receptor 6 (Rattus norvegicus, UniProt P31388)
[3] = target: 5-hydroxytryptamine receptor 6 (Homo sapiens, UniProt P50406)
Sequence of 5-hydroxytryptamine receptor 6 (Homo sapiens, UniProt P50406) (P50406 whole entry): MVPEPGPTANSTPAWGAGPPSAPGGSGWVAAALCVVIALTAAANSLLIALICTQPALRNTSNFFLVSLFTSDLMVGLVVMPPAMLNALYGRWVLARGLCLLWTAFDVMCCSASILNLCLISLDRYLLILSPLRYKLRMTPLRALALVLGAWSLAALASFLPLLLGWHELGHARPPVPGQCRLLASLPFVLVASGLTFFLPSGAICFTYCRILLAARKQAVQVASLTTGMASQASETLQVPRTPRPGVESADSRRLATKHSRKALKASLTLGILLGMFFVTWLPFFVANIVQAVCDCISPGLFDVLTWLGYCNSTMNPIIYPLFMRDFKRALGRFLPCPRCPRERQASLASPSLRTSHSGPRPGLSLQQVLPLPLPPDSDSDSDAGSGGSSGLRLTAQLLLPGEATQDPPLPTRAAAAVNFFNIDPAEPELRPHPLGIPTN

Sequence of 5-hydroxytryptamine receptor 6 (Mus musculus, UniProt Q9R1C8) (Q9R1C8 whole entry): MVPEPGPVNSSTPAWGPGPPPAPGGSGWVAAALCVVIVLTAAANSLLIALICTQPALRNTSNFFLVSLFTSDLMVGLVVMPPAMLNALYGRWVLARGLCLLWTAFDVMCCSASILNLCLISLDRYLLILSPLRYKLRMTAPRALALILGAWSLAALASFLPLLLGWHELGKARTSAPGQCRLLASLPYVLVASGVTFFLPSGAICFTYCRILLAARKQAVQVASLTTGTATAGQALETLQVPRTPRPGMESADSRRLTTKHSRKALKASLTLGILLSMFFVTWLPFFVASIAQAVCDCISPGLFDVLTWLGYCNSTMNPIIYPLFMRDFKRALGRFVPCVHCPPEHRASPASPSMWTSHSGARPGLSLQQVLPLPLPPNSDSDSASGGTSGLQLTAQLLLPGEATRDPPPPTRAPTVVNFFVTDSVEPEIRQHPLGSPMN
Sequence of 5-hydroxytryptamine receptor 6 (Rattus norvegicus, UniProt P31388) (P31388 whole entry): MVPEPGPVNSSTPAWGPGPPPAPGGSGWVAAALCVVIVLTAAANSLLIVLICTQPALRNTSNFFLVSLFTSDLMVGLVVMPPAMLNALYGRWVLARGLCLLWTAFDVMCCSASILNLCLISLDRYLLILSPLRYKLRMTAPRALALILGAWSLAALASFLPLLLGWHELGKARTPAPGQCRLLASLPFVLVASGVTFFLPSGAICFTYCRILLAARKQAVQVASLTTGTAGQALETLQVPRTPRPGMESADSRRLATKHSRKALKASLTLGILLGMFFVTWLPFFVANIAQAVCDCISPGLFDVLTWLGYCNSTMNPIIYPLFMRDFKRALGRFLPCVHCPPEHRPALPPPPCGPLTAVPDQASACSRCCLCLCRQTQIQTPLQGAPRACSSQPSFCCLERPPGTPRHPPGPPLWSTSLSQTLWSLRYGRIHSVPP

What does the source list for `COc1ccc(NS(=O)(=O)c2sc3ccc(Cl)cc3c2C)cc1N1CCNCC1`?
Ki [1]: 1.23 nM; Ki [2]: 0.71 nM

For `CN(C)CCC=C1c2ccccc2CCc2ccccc21`, which Ki [3] is on record?
Its Ki is 141 nM.

What about the Ki [1] of the same compound?
Its Ki is 89.1 nM.

What about the Ki [2] of the same compound?
Its Ki is 182 nM.

Which results are given for `COc1ccc(NS(=O)(=O)c2ccc(Br)cc2)cc1N1CCN(C)CC1`?
Ki [3]: 2.82 nM; Ki [1]: 22.9 nM; Ki [2]: 4.79 nM

How did the Ki [1] turn out when `CN1CCN(C2=c3ccccc3=Nc3ccc(Cl)cc3N2)CC1` [6-chloro-10-(4-methylpiperazin-1-yl)-2,9-diazatricyclo[9.4.0.0^{3,8}]pentadeca-1,3(8),4,6,10,12,14-heptaene] was run?
Its Ki is 6.46 nM.

Which Ki [1] does the source give for `CN1CCN2c3ccccc3Cc3ccccc3C2C1` (stereo not drawn) [MIANSERIN HYDROCHLORIDE] here?
Its Ki is 3.24 nM.

Which results are given for `COc1ccc(S(=O)(=O)Nc2cc(Br)cc(F)c2Br)cc1N1CCNCC1` [N-(2,5-dibromo-3-fluorophenyl)-4-methoxy-3-(piperazin-1-yl)benzenesulfonamide]?
Ki [1]: 61.7 nM; Ki [2]: 1.41 nM

What does the source list for `CCN(CC)C(=O)C1C=C2c3cccc4[nH]cc(c34)CC2N(C)C1` (stereo not drawn) [NSC_3981]?
Ki [1]: 2.82 nM; Ki [2]: 2.63 nM

Which results are given for `CNc1cc(NS(=O)(=O)c2ccc(N)cc2)nc(NC)n1` [Ro-04-6790]?
Ki [3]: 51.3 nM; Ki [1]: > 10000 nM; Ki [2]: 28.8 nM

What does the source list for `COc1ccc(NS(=O)(=O)c2sc3ccc(Cl)cc3c2C)cc1N1CCN(C)CC1` [SB-258510]?
Ki [1]: 1 nM; Ki [2]: 0.76 nM

How did the Ki [1] turn out when `COc1ccc(NS(=O)(=O)c2ccc(I)cc2)cc1N1CCN(C)CC1` [SB-258585] was run?
Its Ki is 11.2 nM.

And the Ki [2]?
Its Ki is 2.29 nM.

Which Ki [3] does the source give for `CNS(=O)(=O)Cc1ccc2[nH]cc(CCN(C)C)c2c1` [Sumax] here?
Its Ki is greater than 10000 nM.

And the Ki [1]?
The Ki was 5620 nM.

What about the Ki [2] of the same compound?
The Ki was greater than 10000 nM.

Which Ki [1] does the source give for `NCCc1c[nH]c2ccc(O)cc12` [[3H]-5-HT] here?
Its Ki is 95.5 nM.

What about the Ki [2] of the same compound?
Its Ki is 79.4 nM.

How did the Ki [1] turn out when `CSc1ccc2c(c1)C(N1CCN(C)CC1)Cc1ccccc1S2` (stereo not drawn) [methanesulfonic acid;1-methyl-4-(3-methylsulfanyl-5,6-dihydrobenzo[b][1]benzothiepin-5-yl)piperazine] was run?
Its Ki is 0.56 nM.

For `COc1ccc2[nH]cc(CCN)c2c1` [tryptamine, 5-Methoxy], which Ki [2] is on record?
Its Ki is 22.4 nM.
